The results in this text go back to US9382306B2, “Octapeptide compounds derived from somatostatin and the therapeutic use thereof” (IPSEN PHARMA S.A.S., priority 2008, dated 2016).

SMILES strings stand for the structures. “And” between values parts separate entries of the source, which are not always exact repeats. Identical values can stand only once. Bridge positions count the residues as written; N and C are the ends. Square brackets hold non-standard residues; d marks the D form. Peptide text beside a SMILES is read from it. ξ: configuration not given here. d2Nal = N[C@H](Cc1ccc2ccccc2c1)C(=O)O; Thr(3ξ) = CC(O)[C@H](N)C(=O)O

Data set [1] can be described thus: Self-assembly study: putting peptides in solution in water, macroscopic, ATR-FTIR, TEM and SAXS analysis. In kind it is physicochemical. The settings on record: 3 to 15% by mass of peptide in water; form and diameter of the self-assembled structure, or soluble / insoluble.
The nature of data set [2]: Rheology of solutions/gels of the octapeptides (oscillatory, cone/plane rheometer). It counts as physicochemical. The settings on record: 25° C. The method, then:
The viscous and viscoelastic properties of the solutions/gels of the compounds according to the invention can be studied by rheology according to the operating methods described hereafter.
The measurements are in general carried out using a rheometer of “Control Stress Haake 600” type (Haake, Germany) equipped with a cone/plane measurement geometry, with a cone 20 mm in diameter, an angle of 1 degree and an air gap of 52 microns. The measurement temperature is fixed at 25° C. +/−0.2° C. using a thermostatically-controlled bath but can be adjusted if necessary.
Two complementary types of tests are carried out, on the one hand measurements in static mode and on the other hand measurements in dynamic mode (oscillatory rheology); both are briefly described hereafter. […]
For the dynamic measurements, a shear strain (γ0) […] of sinusoidal type, of known amplitude and frequency is applied to the sample. The resultant sinusoidal shear stress is measured (amplitude τ0). […] In this case, the sine curves recorded for the shear strain and the shear stress having a phase angle difference δ. The values of τ0, γ0 and δ make it possible to access the viscoelastic parameters:
The storage modulus (also called elastic modulus) is a measurement of the elastic energy stored (or restored) per unit volume, whilst the loss modulus is a measurement of the energy dissipated per unit volume. These moduli must be calculated in the linear viscoelastic region (i.e. experimental conditions for which these moduli are independent of the amplitude of the shear stress (strain)). These experimental conditions are in general determined by a so-called “stress sweep” experiment which consists of a measurement of the elastic modulus and the loss modulus as a function of the amplitude of the deformation imposed (for a given frequency, typically 1Hz). In general, in the case of small deformations, G′ and G″ vary very little with the deformation. Then, on passing the yield point, a strong reduction in G′ and a maximum of G″ is observed. This transition delimits the linear viscoelasticity region. When the linear viscoelasticity region is known, other tests can be carried out such as “frequency sweep” measurements consisting of measuring the dependence of G′ and G″ as a function of shear frequency at a fixed deformation amplitude, comprised in the linear viscoelasticity region.
The critical deformation is the deformation from which the elastic modulus dependent on the deformation applied at a constant frequency. For higher deformations, the material looses its viscoelastic properties and tends to become more viscous than elastic. […]

As to `CC(C)[C@@H]1NC(=O)[C@H](CCCCN)NC(=O)[C@@H](Cc2c[nH]cn2)NC(=O)[C@H](Cc2ccc(O)cc2)NC(=O)[C@@H](NC(=O)[C@H](N)Cc2ccc3ccccc3c2)CSSC[C@@H](C(=O)N[C@H](C(N)=O)C(C)O)NC1=O` (stereo partly drawn) [Example 3, H-D-2-Nal^1-cyclo(Cys^2-Tyr^3-D-His^4-Lys^5-Val^6-Cys^7)-Thr^8-NH2.2 CH3COOH] (H-[d2Nal]CY[dH]KVC[Thr(3ξ)]-NH2; disulfide 2-7), the Assembly result in data set [1] is “monodisperse peptide nanotubes and 9.3 nm monodisperse nanotube”. Also, the Critical deformation rheology entry in data set [2] (75 mM) was “Viscosity”; in data set [2] (226 mM), 360 Pa. In addition, the Storage modulus rheology result in data set [2] (75 mM) is “Viscosity”; in data set [2] (226 mM) it was 150,000 Pa.
On to `CC(C)[C@@H]1NC(=O)[C@H](CCCCN)NC(=O)[C@@H](C)NC(=O)[C@H](Cc2ccc(O)cc2)NC(=O)[C@@H](NC(=O)[C@H](N)Cc2ccc3ccccc3c2)CSSC[C@@H](C(=O)N[C@H](C(N)=O)C(C)O)NC1=O` (stereo partly drawn) [Example 4, H-D-2-Nal^1-cyclo(Cys^2Tyr^3-D-Ala^4-Lys^5-Val^6Cys^7)-Thr^8-NH2.2 CH3COOH] (H-[d2Nal]CY[dA]KVC[Thr(3ξ)]-NH2; disulfide 2-7), for which the Assembly result in data set [1] was “self-assembled fibres”. For the same molecule, the Critical deformation rheology is listed as 800 Pa in data set [2] (75 mM) and 18,600 Pa in data set [2] (226 mM). Besides, the Storage modulus rheology was 184,000 Pa in data set [2] (75 mM) and >2,700,000 Pa in data set [2] (226 mM).
Take `CC(C)[C@@H]1NC(=O)[C@H](CCCCN)NC(=O)[C@@H](Cc2cccc3ccccc23)NC(=O)[C@H](Cc2ccc(O)cc2)NC(=O)[C@@H](NC(=O)[C@H](N)Cc2ccc3ccccc3c2)CSSC[C@@H](C(=O)N[C@H](C(N)=O)C(C)O)NC1=O` (stereo partly drawn) [Example 6, H-D-2-Nal^1-cyclo(Cys^2Tyr^3-13-(1-naphthyl)-D-Ala^4-Lys^5-Val^6-Cys^7)-Thr^8-NH2.2 CH3COOH]: in data set [1], the Assembly result is “monodisperse peptide nanotubes and 35 nm monodisperse nanotube”. The figures for the Critical deformation rheology in data set [2] (75 mM) and in data set [2] (226 mM) were 5000 Pa and 8500 Pa, respectively. For the same molecule, the Storage modulus rheology in data set [2] (75 mM) is 643,500 Pa; in data set [2] (226 mM) it was >2,700,000 Pa.
